For one molecule, tumor growth delay results are on record in patent US20210369746A1, “ADMINISTRATION OF HYPOXIA ACTIVATED PRODRUGS IN COMBINATION WITH IMMUNE MODULATORY AGENTS FOR TREATING CANCER” (MOLECULAR TEMPLATES, INC., priority 2016, published 2021).

For the assay, the system named is TRAMP-C2 and/or Panc02 pancreatic ductal adenocarcinoma cells. As to the kind of experiment: Antitumor activity of TH-302 with immune modulating agents in mice xenografts. To be noted: single agent; TH-302 50 mg/kg i.p. every day for 5 days; tumor growth observed by IVIS. In kind it is in vivo. The protocol: 5×10^5 to 1×10^6 TRAMP-C2, C57BL/6J, B6, FVB F1 cells and/or Panc02 pancreatic ductal adenocarcinoma cells expressing luciferase are […] implanted s.c. on the right flank of albino or ODD-Luc reporter mice. The mice are treated with TH-302 alone (50 mg/kg i.p., every day for 5 days), either 1 week, 3 weeks or 16 weeks after TRAMP cell implantation, with a week of rest in between. Some mice are also treated with CTLA-4 blocking antibody 9H10, PD-1 blocking antibody RMP1-14 and/or agonistic […] antibody given i.p. on days 1, 4, 7 and days 13, 16 and 19 for one to three cycles. Mice are monitored for survival (log-rank, mantel-cox test) and tumor growth was observed by IVIS once a week up to 140 days after tumor implantation. The mice were then sacrificed and their organs were weighed and tumors were isolated, fixed in paraformaldehyde or acetone, embedded/mounted in OCT, frozen, sectioned, stained for hypoxia with anti-piminidazole FITC, GR-1 V450, CD11b Alexa 546, and/or F4/80 Alexa 647.

Regarding `Cn1c(COP(=O)(NCCBr)NCCBr)cnc1[N+](=O)[O-]` [TH-302], the tumor growth delay entry is given as “produced a growth delay”.
